In paper PMC4778748 (Bioorganic & medicinal chemistry, 2016):
One block for each molecule: values may come before it.

Experiments:
[1] = tested on: rat ortholog of 12/15-LOX; conditions: cited from earlier work
[2] = cited from earlier work
[3] = tested on: dog ortholog of 12/15-LOX; conditions: cited from earlier work
h12/15-LOX [4] = biological target: T1, h12/15-LOX (Homo sapiens, UniProt P16050); experiment: Lipoxygenase UV-Vis-based IC50 assay; type: biochemical; conditions: for loss of potency against h12/15-LOX relative to parent: SAR comparison of IC50 values
T1 sequence (P16050 1-662): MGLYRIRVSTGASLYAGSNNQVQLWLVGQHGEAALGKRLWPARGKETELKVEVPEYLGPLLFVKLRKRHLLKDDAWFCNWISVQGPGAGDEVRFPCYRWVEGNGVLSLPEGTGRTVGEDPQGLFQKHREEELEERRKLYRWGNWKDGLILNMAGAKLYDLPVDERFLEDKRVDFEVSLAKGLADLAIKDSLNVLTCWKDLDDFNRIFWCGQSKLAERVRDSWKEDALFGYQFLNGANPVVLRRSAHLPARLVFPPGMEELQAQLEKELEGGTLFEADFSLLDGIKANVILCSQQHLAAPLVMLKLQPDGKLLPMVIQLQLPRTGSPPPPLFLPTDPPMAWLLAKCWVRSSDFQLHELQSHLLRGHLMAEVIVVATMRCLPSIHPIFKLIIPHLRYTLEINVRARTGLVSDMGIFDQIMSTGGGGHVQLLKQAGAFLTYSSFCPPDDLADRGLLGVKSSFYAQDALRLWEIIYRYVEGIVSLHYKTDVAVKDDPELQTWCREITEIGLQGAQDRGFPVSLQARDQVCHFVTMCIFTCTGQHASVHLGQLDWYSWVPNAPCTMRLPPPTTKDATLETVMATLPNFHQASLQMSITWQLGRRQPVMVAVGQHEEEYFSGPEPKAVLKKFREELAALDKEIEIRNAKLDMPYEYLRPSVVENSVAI

h12/15-LOX [5] = biological target: T1, h12/15-LOX; experiment: Steady-state inhibition kinetics
[6] = Solubility limit of inhibitor in enzyme assay; type: physicochemical; conditions: concentrations above 35 µM
HT-22 cells = experiment: HT-22 cellular assay; type: cell-based; conditions: Mus musculus, HT-22, read-out: approximate cellular EC50 (ex vivo IC50) in HT-22
h12/15-LOX [7] = biological target: T1, h12/15-LOX; experiment: Pseudoperoxidase assay; conditions: 20 µM inhibitor, 20 µM 13-HpODE, 60 nM enzyme
[8] = cited from earlier work; remark: listed apart in the source
[9] = cited from earlier work; remark: listed apart in the source
[10] = tested on: rabbit reticulocyte 12/15-LOX; conditions: cited from earlier work
h5-LOX = biological target: T2, h5-LOX (Homo sapiens, UniProt P09917); experiment: Selectivity assay; type: biochemical; conditions: read-out: inhibition of h5-LOX (positive control)
T2 sequence (P09917 1-674): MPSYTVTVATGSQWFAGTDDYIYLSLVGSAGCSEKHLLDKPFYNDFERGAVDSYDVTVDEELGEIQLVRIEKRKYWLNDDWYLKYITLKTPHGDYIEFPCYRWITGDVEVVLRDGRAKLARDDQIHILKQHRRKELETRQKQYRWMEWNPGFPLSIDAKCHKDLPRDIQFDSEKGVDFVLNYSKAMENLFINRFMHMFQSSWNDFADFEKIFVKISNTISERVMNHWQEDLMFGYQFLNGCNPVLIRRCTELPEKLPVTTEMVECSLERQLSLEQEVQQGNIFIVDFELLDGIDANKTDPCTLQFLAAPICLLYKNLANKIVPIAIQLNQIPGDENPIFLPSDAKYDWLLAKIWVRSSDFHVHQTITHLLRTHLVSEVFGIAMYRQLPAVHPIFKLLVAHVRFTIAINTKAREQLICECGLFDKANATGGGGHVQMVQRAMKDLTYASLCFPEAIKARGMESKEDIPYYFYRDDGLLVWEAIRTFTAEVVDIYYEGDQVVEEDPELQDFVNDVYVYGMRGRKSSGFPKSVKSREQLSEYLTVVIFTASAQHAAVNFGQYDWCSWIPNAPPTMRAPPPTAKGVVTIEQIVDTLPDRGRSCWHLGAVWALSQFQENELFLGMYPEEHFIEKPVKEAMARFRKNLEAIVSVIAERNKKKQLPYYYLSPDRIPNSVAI

SMILES: O=C(Nc1ccc(F)cc1Cl)c1c[nH]nn1 [BLX-2477, N-(2-chloro-4-fluorophenyl)triazole-4-carboxamide]
potency against rat ortholog [1]: did not exhibit potency | off-target effects in mini-pigs [2]: adverse off-target effects | potency against dog ortholog [3]: did not exhibit potency

loss of potency against h12/15-LOX relative to parent (h12/15-LOX [4]): over 10 fold
SMILES: Cc1ccc(O)c(-c2cc(C(=O)NCc3ccccc3)[nH]n2)c1 [Compound 3]

loss of potency against h12/15-LOX relative to parent (h12/15-LOX [4]): over 10 fold
SMILES: COc1ccc(C(=O)c2c[nH]nc2-c2cc(C)ccc2O)cc1 [Compound 4]

loss of potency against h12/15-LOX relative to parent (h12/15-LOX [4]): greater than 15 fold
SMILES: Cc1ccc(-c2cc(-c3ccc(C)cc3O)[nH]n2)cc1 [Compound 18]

Ki (h12/15-LOX [5]): 6 ± 3.3 µM | mode of inhibition (h12/15-LOX [5]; steady-state kinetics): mixed type inhibitor | solubility in assay buffer [6]: solubility problems | inhibition at 20 µM (h12/15-LOX [4]; read-out: %Inhibition (20 µM), 20 µM inhibitor, 10 µM AA, 0.01% Triton X-100): > 90% | EC50 (HT-22 cells): ~10 µM | degradation of 13-HpODE (redox activity) (h12/15-LOX [7]): not observed
SMILES: Cc1ccc(O)c(-c2cc(-c3ccccc3C)[nH]n2)c1 [Compound 99089]

SMILES: O=C(OCC#CCSc1nnc(-c2cccc3ccccc23)o1)c1cccs1 [ML094, 4-(5-(Naphthalen-1-yl)-1,3,4-oxadiazol-2-ylthio)but-2-ynylthiophene-2-carboxylate]
activity in cell-based assays [8]: lacks activity

SMILES: CNc1oc(-c2cccc3ccccc23)nc1C#N [ML351, 5-(methylamino)-2-(naphthalene-1-yl)oxazole-4-carbonitrile]
in vivo activity in mice [9]: exhibits in vivo activity

SMILES: c1ccc2c(c1)SCc1c-2[nH]c2ccccc12 [PD-146176]
IC50 [10]: 0.81 µM

inhibition at 20 µM (h5-LOX): 97%
SMILES: CC(c1cc2ccccc2s1)N(O)C(N)=O (stereo not shown) [Zileuton]
